Measurements as given in patent publication US6380179B1, “Method for treatment of alopecia” (Sankyo Company, Limited, priority 1997, dated 2002).

Assays:
[1] = target: T1, recombinant type I human 5α-reductase (Homo sapiens, UniProt P18405); assay: Inhibitory activity against recombinant type I human 5α-reductase (conversion of 14C testosterone to 14C 5α-dihydrotestosterone); assay type: biochemical; conditions: recombinant human type I 5α-reductase, pH 7.5, 1 μM 14C testosterone, 37° C. 15 minutes; Table 1
T1 construct: In order to clone the entirely translated regions of type I and type II human 5α-reductases by a polymerase chain reaction (PCR) method; made in house; host or cells: COS-1 cells transiently transfected with pME18sH5R1; resuspended 10000×g pellet of the homogenate used as the enzyme
T1 sequence (P18405 1-259): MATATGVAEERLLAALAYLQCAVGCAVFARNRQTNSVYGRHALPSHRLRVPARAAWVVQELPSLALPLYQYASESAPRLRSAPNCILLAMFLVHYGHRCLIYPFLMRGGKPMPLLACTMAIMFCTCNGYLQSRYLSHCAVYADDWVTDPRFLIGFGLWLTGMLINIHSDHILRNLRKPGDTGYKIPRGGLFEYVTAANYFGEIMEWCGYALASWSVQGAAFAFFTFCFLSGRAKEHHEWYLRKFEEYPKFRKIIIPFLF
Protocol: Method for Determination of the Inhibitory Activity Against Each of Type I and Type II Human 5α-reductases
(1) Preparation of recombinant human type I and type II 5α-reductases
In order to clone the entirely translated regions of type I and type II human 5α-reductases by a polymerase chain reaction (PCR) method, primers of Sequence ID. Nos. 1,2,3 and 4 were prepared using an Oligo 1000 DNA synthesizer (product of BECKMAN Co., Ltd.) on the basis of the base sequences of type I and type II human 5α-reductases described in published reports (Stefan. A, et al., Proc. Natl. Acad. Sci. USA, 87, 3640-3644(1990). Stefan. A, et al. Nature, 354. 159-161(1991)).
PCR was carried out using 1 μl of cDNA. 5 μl of a PCR buffer attached. 1 μl of a 10 mM dNTP mixed solution. 1 μl each of the above-described sense and antisense-primers at a concentration of 20 μl M. 1 μl of […] of TaKaRa Taq polymerase and 40 μl of distilled water to give a reaction volume of 50 μl. For PCR, a cycle of the reactions at 94° C. for 20 seconds, at 55° C. for 1 minute and at 72° C. for 1 minute was repeated 25 times, followed by storing at 4° C. […]
The protein content was measured by the Bradford method (Bio-Rad Protein Assay of Biorad) by using bovine gamma-globulin (bovine cohn fraction II, product of Sigma) as a standard product. […]

[2] = test system: dihydrotestosterone (DHT) and testosterone (T) levels in blood; assay: Effects for lowering the dihydrotestosterone level in human blood after oral administration; assay type: in vivo; conditions: n=4 to 6
Protocol: Effects for Lowering the Dihydrosterone Level in Human Blood
To a human body, 1 to 10 mg/body of Compound I or 5 mg/body of Finasteride was orally administered and the dihydrotestosterone (DHT) and testosterone (T) levels in blood were measured. Their ratios (DHT/T) before administration (pre) and after passage of time (10 and 18 hours) were calculated, from which (DHT/T)/(DHT/T)pre was calculated.

human baldness = conditions: clinical test; cited from earlier work
[3] = test system: monkey model animal of male pattern baldness; conditions: cited from earlier work

Q: Which results are given for `COc1ccc(C(C)(C)NC(=O)[C@H]2CC[C@H]3[C@@H]4CC[C@H]5NC(=O)C=C[C@]5(C)[C@H]4CC[C@]23C)cc1` [Compound of Reference Example 1, N-[1-Methyl1-(4-methoxyphenyl)ethyl]-3-oxo4-aza-5α-androsto-1-ene-17β-carboxamide]?
A: IC50 [1]: 49 nM; (DHT/T)/(DHT/T)pre ([2]; 1 mg/body, after 10 hours): 0.518; (DHT/T)/(DHT/T)pre ([2]; 1 mg/body, after 18 hours): 0.525; (DHT/T)/(DHT/T)pre ([2]; 5 mg/body, after 10 hours): 0.411; (DHT/T)/(DHT/T)pre ([2]; 5 mg/body, after 18 hours): 0.376; (DHT/T)/(DHT/T)pre ([2]; 10 mg/body, after 10 hours): 0.279; (DHT/T)/(DHT/T)pre ([2]; 10 mg/body, after 18 hours): 0.284

Q: With `CC(C)(C)NC(=O)[C@H]1CC[C@H]2[C@@H]3CC[C@H]4NC(=O)C=C[C@]4(C)[C@H]3CC[C@]12C` [Finasteride, reference compound] as the compound, how does the “effects on human baldness” value (human baldness) read?
A: have been recognized

Q: And the IC50 [1]?
A: 700 nM

Q: And the “(DHT/T)/(DHT/T)pre” value ([2]; 5 mg/body, after 10 hours)?
A: 0.553

Q: And the “(DHT/T)/(DHT/T)pre” value ([2]; 5 mg/body, after 18 hours)?
A: 0.461

Q: And the effectiveness on baldness [3]?
A: effective in the treatment of baldness

Q: With `CC(C)CCCC(C)C1CCC2C3C(C)CC4N(C)C(=O)CCC4(C)C3CCC12C` (stereo not shown) [MK386] as the compound, how does the effectiveness on baldness [3] read?
A: not recognized
